The assay addresses human cannabinoid CB2 receptor (Homo sapiens, UniProt P34972). The assay can be described thus: Cannabinoid CB2 receptor agonist activity (yeast reporter assay, FDGlu fluorescence). The format is cell-based. Particulars: for Emax: read-out: efficacy value (Emax relative to HU210) at the cloned human cannabinoid CB2 receptor. The protocol:
Determination of Cannabinoid CB2 Receptor Agonist Activity
The cannabinoid CB2 receptor agonist activity of the compounds of formula (I)-(IV) was determined in accordance with the following experimental method.
Yeast (Saccharomyces cerevisiae) cells expressing the human cannabinoid CB2 receptor were generated by integration of an expression cassette into the ura3 chromosomal locus of yeast strain MMY23. This cassette consisted of DNA sequence encoding the human CB2 receptor flanked by the yeast GPD promoter to the 5′ end of CB2 and a yeast transcriptional terminator sequence to the 3′ end of CB2. MMY23 expresses a yeast/mammalian chimeric G-protein alpha subunit in which the C-terminal 5 amino acids of Gpa1 are replaced with the C-terminal 5 amino acids of human Gαi3 (as described in Brown et al. (2000), Yeast 16:11-22). Cells were grown at 30° C. in liquid Synthetic Complete (SC) yeast media (Guthrie and Fink (1991), Methods in Enzymology, Vol. 194) lacking uracil, tryptophan, adenine and leucine to late logarithmic phase (approximately 6 OD600/ml).
Agonists were prepared as 10 mM stocks in DMSO. […] Agonist solutions in DMSO (1% final assay volume) were transferred into black, clear bottom, microtitre plates from NUNC (96- or 384-well). Cells were suspended at a density of 0.2 OD600/ml in SC media lacking histidine, uracil, tryptophan, adenine and leucine and supplemented with 10 mM 3-aminotriazole, 0.1M sodium phosphate pH 7.0, and […] fluorescein di-β-D-glucopyranoside (FDGlu). This mixture (50 ul per well for 384-well plates, 200 ul per well for 96-well plates) was added to agonist in the assay plates (Multidrop 384, Labsystems). After incubation at 30° C. for 24 hours, fluorescence resulting from degradation of FDGlu to fluorescein due to exoglucanase, an endogenous yeast enzyme produced during agonist-stimulated cell growth, was determined using a Spectrofluor microtitre plate reader (Tecan; excitation wavelength: 485 nm; emission wavelength: 535 nm). Fluorescence was plotted against compound concentration and iteratively curve fitted using a four parameter fit to generate a concentration effect value. Efficacy (Emax) was calculated from the equation
where Max[compound X] and Min[compound X] are the fitted maximum and minimum respectively from the concentration effect curve for compound X, and Max[HU210] and Min[HU210] are the fitted maximum and minimum respectively from the concentration effect curve for (6aR,10aR)-3-(1,1′-Dimethylheptyl)-6a,7,10,10a-tetrahydro-1-hydroxy-6,6-dimethyl-6H-dibenzo[b,d]pyran-9-methanol (HU210; available from Tocris). Equieffective molar ratio (EMR) values were calculated from the equation
Where EC50 [compound X] is the EC50 of compound X and EC50 [HU210] is the EC50 of HU210.
For orientation: A reporter such as luciferase makes a cellular process visible.

[1] abbreviates: EC50 value at the cloned human cannabinoid CB2 receptor.

Like-named read-outs stand apart in the source and are kept apart here.

Chain of human cannabinoid CB2 receptor (P34972 whole entry): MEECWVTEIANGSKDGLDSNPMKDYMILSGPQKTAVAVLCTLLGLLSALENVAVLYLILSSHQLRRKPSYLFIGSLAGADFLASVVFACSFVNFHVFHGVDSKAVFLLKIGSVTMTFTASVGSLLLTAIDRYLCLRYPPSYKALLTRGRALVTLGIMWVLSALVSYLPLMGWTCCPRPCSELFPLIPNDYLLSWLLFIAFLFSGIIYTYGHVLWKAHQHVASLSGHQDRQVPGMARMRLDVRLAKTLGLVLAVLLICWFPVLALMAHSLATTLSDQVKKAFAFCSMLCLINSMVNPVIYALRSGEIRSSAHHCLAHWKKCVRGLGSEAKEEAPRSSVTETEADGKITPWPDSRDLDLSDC

One may read the EC50 as the concentration needed to bring the measured effect to its halfway point. By Emax is commonly meant the maximal effect, on the per cent scale that the assay sets. For `CC(C)(C)CNC(=O)c1cnc(Nc2cccc(Cl)c2)nc1C(F)(F)F` [Example 28, 2-(3-Chloro-phenylamino)-4-trifluoromethyl-pyrimidine-5-carboxylic acid (2,2-dimethyl-propyl)-amide], the Emax is over 50%. The EC50 under setting [1] was in the range of 300 to 1000 nM. For `O=C(NC1CCC1)c1cnc(Nc2cccc(F)c2)nc1C(F)(F)F` [Example 29, 2-(3-Fluoro-phenylamino)-4-trifluoromethyl-pyrimidine-5-carboxylic acid cyclobutylamide], in that order: over 50% and 300 to 1000 nM. For `O=C(NC1CCC1)c1cnc(Nc2ccc(Cl)c(Cl)c2)nc1C(F)(F)F` [Example 30, 2-(3,4-Dichloro-phenylamino)-4-trifluoromethyl-pyrimidine-5-carboxylic acid cyclobutylamide], in that order: over 50% and 300 to 1000 nM.

For `O=C(NCC1CCOCC1)c1cnc(Nc2cccc(F)c2)nc1C(F)(F)F` [Example 31, 2-(3-Fluorophenylamino)-4-trifluoromethylpyrimidine-5-carboxylic acid (tetrahydropyran-4-ylmethyl)amide], the Emax is over 50%. This compound came in with an EC50 under setting [1] of 20 to 300 nM. The like results for `O=C(NCC1CCOCC1)c1cnc(Nc2cccc(Br)c2)nc1C(F)(F)F` [Example 32, 2-(3-Bromophenylamino)-4-trifluoromethylpyrimidine-5-carboxylic acid (tetrahydropyran-4-ylmethyl)amide] were, in that order, over 50% and 20 to 300 nM. For `O=C(NCC1CCOCC1)c1cnc(Nc2cccc(Cl)c2Cl)nc1C(F)(F)F` [Example 33, 2-(2,3-Dichlorophenylamino)-4-trifluoromethylpyrimidine-5-carboxylic acid (tetrahydropyran-4-ylmethyl)amide], the Emax was over 50%. Under setting [1], this compound gave an EC50 of 20 to 300 nM. The like results for `O=C(NCC1CCOCC1)c1cnc(Nc2cc(Cl)ccc2Cl)nc1C(F)(F)F` [Example 35, 2-(2,5-Dichlorophenylamino)-4-trifluoromethylpyrimidine-5-carboxylic acid (tetrahydropyran-4-ylmethyl)-amide] were, in that order, over 50% and 20 to 300 nM. The like results for `O=C(NCC1CCOCC1)c1cnc(Nc2cc(Cl)cc(Cl)c2)nc1C(F)(F)F` [Example 36, 2-(3,5-Dichlorophenylamino)-4-trifluoromethylpyrimidine-5-carboxylic acid (tetrahydropyran-4-ylmethyl)-amide] were, in that order, over 50% and 20 to 300 nM. For `COc1cccc(Nc2ncc(C(=O)NCC3CCOCC3)c(C(F)(F)F)n2)c1` [Example 37, 2-(3-Methoxyphenylamino)-4-trifluoromethylpyrimidine-5-carboxylic acid (tetrahydropyran-4-ylmethyl)-amide], in that order: over 50% and 20 to 300 nM. For `O=C(NCC1CCCC1)c1cnc(Nc2cccc(F)c2)nc1C(F)(F)F` [Example 38, 2-(3-Fluorophenylamino)-4-trifluoromethylpyrimidine-5-carboxylic acid cyclopentylmethyl-amide], the Emax is over 50%. Besides, the EC50 under setting [1] was 20 to 300 nM. The like results for `O=C(NCC1CCCC1)c1cnc(Nc2cccc(Br)c2)nc1C(F)(F)F` [Example 39, 2-(3-Bromophenylamino)-4-trifluoromethylpyrimidine-5-carboxylic acid cyclopentylmethyl-amide] were, in that order, over 50% and 20 to 300 nM. The like results for `O=C(NCC1CCCC1)c1cnc(Nc2cccc(Cl)c2Cl)nc1C(F)(F)F` [Example 40, 2-(2,3-Dichlorophenylamino)-4-trifluoromethylpyrimidine-5-carboxylic acid cyclopentylmethyl-amide] were, in that order, over 50% and 20 to 300 nM. The like results for `O=C(NCC1CCCC1)c1cnc(Nc2ccc(Cl)cc2Cl)nc1C(F)(F)F` [Example 41, 2-(2,4-Dichlorophenylamino)-4-trifluoromethylpyrimidine-5-carboxylic acid cyclopentylmethyl-amide] were, in that order, over 50% and 20 to 300 nM. On to `O=C(NCC1CCCC1)c1cnc(Nc2cc(Cl)ccc2Cl)nc1C(F)(F)F` [Example 42, 2-(2,5-Dichlorophenylamino)-4-trifluoromethylpyrimidine-5-carboxylic acid cyclopentylmethyl-amide], for which the Emax was over 50%. The EC50 under setting [1] is 20 to 300 nM. `O=C(NCC1CCCC1)c1cnc(Nc2c(Cl)cccc2Cl)nc1C(F)(F)F` [Example 43, 2-(2,6-Dichlorophenylamino)-4-trifluoromethylpyrimidine-5-carboxylic acid cyclopentylmethyl-amide]: the Emax is over 50%. Moreover, the EC50 under setting [1] fell in the range of 20 to 300 nM.

For `O=C(NCC1CCCC1)c1cnc(Nc2ccc(Cl)c(Cl)c2)nc1C(F)(F)F` [Example 44, 2-(3,4-Dichlorophenylamino)-4-trifluoromethylpyrimidine-5-carboxylic acid cyclopentylmethyl-amide], the maximal response (Emax) is over 50%. Under setting [1], the EC50 lay within 20 to 300 nM. For `O=C(NCC1CCCC1)c1cnc(Nc2cc(Cl)cc(Cl)c2)nc1C(F)(F)F` [Example 45, 2-(3,5-Dichlorophenylamino)-4-trifluoromethylpyrimidine-5-carboxylic acid cyclopentylmethyl-amide], in that order: over 50% and 20 to 300 nM. For `COc1cccc(Nc2ncc(C(=O)NCC3CCCC3)c(C(F)(F)F)n2)c1` [Example 46, 2-(3-Methoxyphenylamino)-4-trifluoromethylpyrimidine-5-carboxylic acid cyclopentylmethyl-amide], in that order: over 50% and 20 to 300 nM. Regarding `O=C(NC1CCC1)c1cnc(Nc2cccc(Br)c2)nc1C(F)(F)F` [Example 47, 2-(3-Bromophenylamino)-4-trifluoromethylpyrimidine-5-carboxylic acid cyclobutylamide], the EC50 (read-out: EC50 value at the cloned human cannabinoid CB2 receptor) lay in the range of 20 to 300 nM. `O=C(NC1CCC1)c1cnc(Nc2cccc(Cl)c2Cl)nc1C(F)(F)F` [Example 48, 2-(2,3-Dichlorophenylamino)-4-trifluoromethylpyrimidine-5-carboxylic acid cyclobutylamide]: the Emax was over 50%. Moreover, under setting [1], the EC50 lay in the range of 20 to 300 nM. Consider `O=C(NC1CCC1)c1cnc(Nc2ccc(Cl)cc2Cl)nc1C(F)(F)F` [Example 49, 2-(2,4-Dichlorophenylamino)-4-trifluoromethylpyrimidine-5-carboxylic acid cyclobutylamide], for which the Emax was over 50%. Further, under setting [1], the EC50 fell in the range of 20 to 300 nM.

On to `O=C(NC1CCC1)c1cnc(Nc2cc(Cl)ccc2Cl)nc1C(F)(F)F` [Example 50, 2-(2,5-Dichlorophenylamino)-4-trifluoromethylpyrimidine-5-carboxylic acid cyclobutylamide], for which the Emax is over 50%. In addition, the EC50 under setting [1] is 20 to 300 nM.

`O=C(NC1CCC1)c1cnc(Nc2c(Cl)cccc2Cl)nc1C(F)(F)F` [Example 51, 2-(2,6-Dichlorophenylamino)-4-trifluoromethylpyrimidine-5-carboxylic acid N-cyclobutylamide]: the Emax was over 50%. Under setting [1], this compound returned an EC50 of 20 to 300 nM. Regarding `O=C(NC1CCC1)c1cnc(Nc2cc(Cl)cc(Cl)c2)nc1C(F)(F)F` [Example 52, 2-(3,5-Dichlorophenylamino)-4-trifluoromethylpyrimidine-5-carboxylic acid cyclobutylamide], the Emax is over 50%. The EC50 under setting [1] fell in the range of 20 to 300 nM. The like results for `COc1cccc(Nc2ncc(C(=O)NC3CCC3)c(C(F)(F)F)n2)c1` [Example 53, 2-(3-Methoxyphenylamino)-4-trifluoromethylpyrimidine-5-carboxylic acid cyclobutylamide] were, in that order, over 50% and 20 to 300 nM. For `O=C(NCC1CCC1)c1cnc(Nc2cccc(Cl)c2)nc1C(F)(F)F` [Example 54, 2-(3-Chlorophenylamino)-4-trifluoromethylpyrimidine-5-carboxylic acid cyclobutylmethyl-amide], in that order: over 50% and 20 to 300 nM. As to `O=C(NCC1CCOCC1)c1cnc(Nc2c(Cl)cccc2Cl)nc1C(F)(F)F` [Example 55, 2-(2,6-Dichlorophenylamino)-4-trifluoromethyl-pyrimidine-5-carboxylic acid (tetrahydro-pyran-4-ylmethyl)-amide], the Emax was over 50%. This compound also returned a 50% effective concentration (EC50) under setting [1] of 20 to 300 nM.

(Values after patent US20080132505A1 (Glaxo Group Limited, priority 2004, published 2008).)
